Earlier results on three compounds are cited in patent EP2251003A2, “Ophthalmic Compositions for the Re-epithelialization, Healing and Disinfection of the Eye Tissues” (priority 2009, dated 2010).

Like-named read-outs stand apart in the source and are kept apart here.

One data set deals with cornea of the rabbit. The settings on record: administered to the cornea of the rabbit.
For data set [1] the following is noted: 1.5 g/kg/day administered for 90 days.
The conditions of data set [2]: in vivo.
For data set [3] the following is noted: 1 g/kg/day, rat.
The subject of the next data set is fibroblast. The note with it: in vitro.
For data set [4] the following is noted: eyedrops containing dexpanthenol.
Data set [5] concerns eye of the rabbit. The settings on record: 5% ophthalmic solution, topical application.
For data set [6] the following is noted: mouse.
For data set [7] the following is noted: topical use, reported in the literature.
For data set [8] the following is noted: 50 mg/kg/day administered orally to rats, subchronic.
For data set [9] the following is noted: rat, more recent studies.
Data set [10] concerns eye of the rabbit. The note with it: topical.

For `CS(C)(=O)=O` [MSM, Methylsulphonylmethane], in the data set on cornea of the rabbit, the “intraocular absorption of other substances” value was “promotes intraocular absorption of disodium edetate and other substances”. In data set [1], the toxic effect entry is given as “do not have any toxic effect”. The “absorption and urinary elimination” value in data set [2] was “rapid absorption and rapid urinary elimination”. Further, the “toxic effects on fertility, gestation and neonatal development” value in [3] was “absence of toxic effects”.

For the compound `CC(C)(CO)[C@@H](O)C(=O)NCCCO` [dexpanthenol], the fibroblast proliferation result with fibroblast is “activation of fibroblast proliferation”. For the same compound, in data set [4], the ocular tolerability result was “excellent”. In the data set with eye of the rabbit [5], the “extent and time of re-epithelialisation of the corneal endothelium” value was “significantly stimulated”.

Turning to `N=C(N)c1ccc(OCCCCCCOc2ccc(C(=N)N)cc2)cc1` [hexamidine diisethionate], the “intraperit. LD50” value in data set [6] (intraperitoneal) is 1060 mg/kg. For the same compound, the “oral LD Lo” value in data set [6] (oral) is 100 mg/kg. Besides, in data set [6] (oral, Toxicology and Applied Pharmacology 1975), the “oral LD50” value is recorded as 280 mg/kg. Further, the “oral acute toxicity, expressed as LD50” value in data set [6] (oral, more recent studies) was 710 to 2500 mg/kg; in data set [9], 750 mg/kg. Also, the cases of sensitisation result in [7] is listed as “nine cases out of millions of subjects”. In addition, the toxic effect entry in data set [8] was “did not show any toxic effect”. In addition, the eye irritation result in the data set on eye of the rabbit [10] (aqueous solutions containing 0.10-0.11%) was “slight, transient irritation”; with eye of the rabbit [10] (concentration of 0.050%) it was “no reaction”.
